We go through 21 compounds from patent US11767322B2 (BRISTOL-MYERS SQUIBB COMPANY, priority 2020, dated 2023).

Where two headings read alike, the source gives them in different places. Bounds are passed on as bounds.

The test system of assay [1] is MLKL phosphorylation in HT29-L23 human colorectal adenocarcinoma cells. The assay is described as follows: MLKL phosphorylation high-content assay. Format: cell-based. As to conditions: necroptosis induced with TNFα, SMAC mimetic and Z-VAD, 6 h, maximal inhibition defined by Nec1s.
Assay [2] addresses GST-tagged PIK3Cδ in complex with PIK3R1 (Homo sapiens, UniProt O00329). The assay is described as follows: PI3Kδ HTRF binding assay. Conditions: read-out: PIK3CD IC50.
The target of assay [3] is T1, His-GST-TVMV-hRIPK1(1-324) (Homo sapiens, UniProt Q13546).
T1 construct: The coding region of human RIPK1(1-324) flanked by NdeI site at 5′ end; made in house; host or cells: Spodoptera frugiperda Sf9 insect cells (baculovirus, Bac-to-Bac)
T1 sequence (Q13546 1-324): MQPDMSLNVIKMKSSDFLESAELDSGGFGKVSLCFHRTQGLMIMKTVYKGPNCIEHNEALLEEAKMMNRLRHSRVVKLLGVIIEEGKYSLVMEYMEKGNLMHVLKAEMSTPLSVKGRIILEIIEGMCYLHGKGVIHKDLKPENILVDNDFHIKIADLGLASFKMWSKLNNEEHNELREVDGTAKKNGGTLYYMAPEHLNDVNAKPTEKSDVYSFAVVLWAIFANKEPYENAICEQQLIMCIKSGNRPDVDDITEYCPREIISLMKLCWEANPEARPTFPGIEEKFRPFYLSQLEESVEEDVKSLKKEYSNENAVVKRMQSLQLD
The assay is described as follows: biochemical. Format: binding. As to conditions: HTRF probe displacement, 1 h at rt; read-out: RIPK1 IC50.

Where [4] appears, read: read-out: pMLKL IC50, HT29-L23 cells.
The mark [5] stands for this setting: HTRF probe displacement, 1 h at rt.
[6] abbreviates: Homo sapiens, read-out: pMLKL IC50, HT29-L23 cells.

GST-tagged PIK3Cδ in complex with PIK3R1, sequence (O00329 whole entry): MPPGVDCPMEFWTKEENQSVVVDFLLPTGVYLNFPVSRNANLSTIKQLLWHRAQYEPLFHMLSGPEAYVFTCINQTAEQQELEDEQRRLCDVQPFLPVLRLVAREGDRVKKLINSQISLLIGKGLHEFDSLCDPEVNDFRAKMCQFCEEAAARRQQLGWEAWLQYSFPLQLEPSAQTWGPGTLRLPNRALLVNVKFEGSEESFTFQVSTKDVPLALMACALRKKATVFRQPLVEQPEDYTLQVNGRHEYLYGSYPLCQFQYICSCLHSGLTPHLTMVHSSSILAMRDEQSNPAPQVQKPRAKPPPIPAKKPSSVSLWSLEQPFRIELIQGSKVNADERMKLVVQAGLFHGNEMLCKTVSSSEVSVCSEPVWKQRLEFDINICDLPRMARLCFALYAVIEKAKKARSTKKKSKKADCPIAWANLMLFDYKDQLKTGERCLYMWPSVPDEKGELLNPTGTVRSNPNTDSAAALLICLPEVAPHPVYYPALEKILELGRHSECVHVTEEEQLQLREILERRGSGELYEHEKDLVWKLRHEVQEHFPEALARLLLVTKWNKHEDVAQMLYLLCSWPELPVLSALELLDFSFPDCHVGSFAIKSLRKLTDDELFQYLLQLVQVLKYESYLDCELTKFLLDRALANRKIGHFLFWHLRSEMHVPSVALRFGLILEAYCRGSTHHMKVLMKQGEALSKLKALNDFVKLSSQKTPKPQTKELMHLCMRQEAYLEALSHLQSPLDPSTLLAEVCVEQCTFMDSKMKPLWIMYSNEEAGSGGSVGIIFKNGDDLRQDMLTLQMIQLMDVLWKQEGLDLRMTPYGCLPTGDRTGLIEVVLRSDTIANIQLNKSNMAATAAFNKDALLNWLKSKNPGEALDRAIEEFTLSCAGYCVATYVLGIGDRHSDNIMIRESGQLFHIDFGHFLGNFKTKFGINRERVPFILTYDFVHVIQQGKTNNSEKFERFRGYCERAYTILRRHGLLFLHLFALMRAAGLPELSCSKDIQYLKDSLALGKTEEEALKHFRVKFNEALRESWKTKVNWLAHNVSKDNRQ
GST-tagged PIK3Cδ in complex with PIK3R1, sequence (P27986 whole entry partner): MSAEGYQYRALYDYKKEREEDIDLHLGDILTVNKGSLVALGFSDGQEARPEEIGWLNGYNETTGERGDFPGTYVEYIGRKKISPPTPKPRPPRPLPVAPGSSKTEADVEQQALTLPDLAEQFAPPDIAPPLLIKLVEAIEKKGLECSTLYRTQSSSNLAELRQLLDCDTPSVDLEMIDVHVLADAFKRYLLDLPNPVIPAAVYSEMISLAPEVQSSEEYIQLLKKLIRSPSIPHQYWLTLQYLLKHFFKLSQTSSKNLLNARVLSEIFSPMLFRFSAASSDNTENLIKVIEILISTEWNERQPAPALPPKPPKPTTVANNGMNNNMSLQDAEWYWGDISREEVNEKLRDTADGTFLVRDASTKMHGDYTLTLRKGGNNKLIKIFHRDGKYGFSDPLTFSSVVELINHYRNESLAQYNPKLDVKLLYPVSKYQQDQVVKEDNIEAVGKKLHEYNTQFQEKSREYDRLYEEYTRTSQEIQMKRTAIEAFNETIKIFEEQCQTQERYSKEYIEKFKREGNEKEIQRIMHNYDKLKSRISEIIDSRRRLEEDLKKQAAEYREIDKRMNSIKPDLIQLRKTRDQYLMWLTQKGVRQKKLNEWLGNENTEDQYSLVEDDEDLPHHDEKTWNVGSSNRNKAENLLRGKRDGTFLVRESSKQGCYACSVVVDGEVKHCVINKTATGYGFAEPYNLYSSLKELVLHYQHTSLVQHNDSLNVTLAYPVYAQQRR

With `Cc1ccc(-c2ccn3nc(N)nc3c2)c(F)c1C(=O)NC(CF)CC(O)c1ccc(F)cc1` (single isomer, unassigned) [Example 25, 3-(2-amino-[1,2,4]triazolo[1,5-a]pyridin-7-yl)-2-fluoro-N-(1-fluoro-4-(4-fluorophenyl)-4-hydroxybutan-2-yl)-6-methylbenzamide], the IC50 was 4.1 nM in assay [1] (setting [4]), above 15000 nM in assay [2] (setting [5]) and 3.6 nM in assay [3].
On to `Nc1nc2cc(-c3ccc(CF)c(C(=O)NCC(F)(F)[C@@H](O)c4ccc(F)cc4)c3F)ccn2n1` [Example 294, (S)-3-(2-amino-[1,2,4]triazolo[1,5-a]pyridin-7-yl)-N-(2,2-difluoro-3-(4-fluorophenyl)-3-hydroxypropyl)-2-fluoro-6-(fluoromethyl)benzamide], for which the values for the IC50 in assay [1] (setting [6]), in assay [2] (setting [5]) and in assay [3] were 1.9 nM, above 15000 nM and 1.9 nM, respectively.
As for `[2H]C([2H])([2H])C(O)(c1ccc(F)cc1)C(F)CNC(=O)c1c(Cl)ccc(-c2ccn3nc(N)nc3c2)c1F` (single isomer, unassigned) [Example 239, 3-(2-amino-[1,2,4]triazolo[1,5-a]pyridin-7-yl)-6-chloro-2-fluoro-N-(2-fluoro-3-(4-fluorophenyl)-3-hydroxybutyl-4,4,4-d3)benzamide], the IC50 in assay [1] (setting [4]) was 26 nM; in assay [2] (setting [5]), above 15000 nM; in assay [3] it was 55 nM.
`[2H]C([2H])(CC([2H])(O)c1ccc(Cl)cc1)NC(=O)c1c(F)ccc(-c2ccn3nc(N)nc3c2)c1F` (single isomer, unassigned) [Example 250, 3-(2-amino-[1,2,4]triazolo[1,5-a]pyridin-7-yl)-N-(3-(4-chlorophenyl)-3-hydroxypropyl-1,1,3-d3)-2,6-difluorobenzamide]: the results for the IC50 in assay [1] (setting [6]), in assay [2] (setting [5]) and in assay [3] were 21 nM, above 15000 nM and 13 nM, respectively.
For `Cc1ccc(-c2ccn3nc(N)nc3c2)c(F)c1C(=O)NC(C)CC(O)c1ccc(F)cc1` (stereo not drawn) [Example 35, 3-(2-amino-[1,2,4]triazolo[1,5-a]pyridin-7-yl)-2-fluoro-N-(4-(4-fluorophenyl)-4-hydroxybutan-2-yl)-6-methylbenzamide], in that order: 0.9 nM, 3900 nM and 2 nM.
With `Cc1ccc(-c2ccn3nc(N)nc3c2)c(F)c1C(=O)NCCC(O)c1ccc(C(F)(F)F)cc1` (single isomer, unassigned) [Example 56, 3-(2-amino-[1,2,4]triazolo[1,5-a]pyridin-7-yl)-2-fluoro-N-(3-hydroxy-3-(4-(trifluoromethyl)phenyl)propyl)-6-methylbenzamide], the IC50 was 0.4 nM in assay [1] (setting [4]), above 15000 nM in assay [2] (setting [5]) and 4.5 nM in assay [3].
Taken in the same sequence, the figures for `[2H]C([2H])(CC([2H])(O)c1ccc(Cl)cc1)NC(=O)c1c(C)ccc(-c2ccn3nc(N)nc3c2)c1F` (single isomer, unassigned) [Example 54, 3-(2-amino-[1,2,4]triazolo[1,5-a]pyridin-7-yl)-N-(3-(4-chlorophenyl)-3-hydroxypropyl-1,1,3-d3)-2-fluoro-6-methylbenzamide] were 1 nM, above 15000 nM and 2.7 nM.
For the compound `COc1ccc(-c2ccn3nc(N)nc3c2)c(F)c1C(=O)NCC[C@@H](O)c1ccc(Cl)cc1` [Example 148, (R)-3-(2-amino-[1,2,4]triazolo[1,5-a]pyridin-7-yl)-N-(3-(4-chlorophenyl)-3-hydroxypropyl)-2-fluoro-6-methoxybenzamide], the figures for the IC50 in assay [1] (setting [6]), in assay [2] and in assay [3] were 17 nM, 5000 nM and 8.3 nM, respectively.
On to `CCc1ccc(-c2ccn3nc(N)nc3c2)c(F)c1C(=O)NCC[C@@H](O)c1ccc(Cl)cc1` [Example 156, (R)-3-(2-amino-[1,2,4]triazolo[1,5-a]pyridin-7-yl)-N-(3-(4-chlorophenyl)-3-hydroxypropyl)-6-ethyl-2-fluorobenzamide], for which the IC50 was 0.8 nM in assay [1] (setting [6]), above 15000 nM in assay [2] (setting [5]) and 5.8 nM in assay [3].
For `Cc1cc(F)c(-c2ccn3nc(N)nc3c2)c(F)c1C(=O)NCC[C@@H](O)c1ccc(Cl)cc1` [Example 278, (R)-3-(2-amino-[1,2,4]triazolo[1,5-a]pyridin-7-yl)-N-(3-(4-chlorophenyl)-3-hydroxypropyl)-2,4-difluoro-6-methylbenzamide], in that order: 38 nM, above 15000 nM and 13 nM.
For `Cc1ccc(-c2ccn3nc(N)nc3c2)c(F)c1C(=O)NCC(F)(F)[C@H](O)c1ccc(F)cc1` (single isomer, unassigned) [Example 31], in that order: 0.8 nM, above 15000 nM and 2.4 nM.
In the case of `Cc1ccc(-c2ccn3nc(N)nc3c2)c(F)c1C(=O)NC(CF)CC(O)c1ccc(F)cc1` (single isomer, unassigned) [Example 28, 3-(2-amino-[1,2,4]triazolo[1,5-a]pyridin-7-yl)-2-fluoro-N-(1-fluoro-4-(4-fluorophenyl)-4-hydroxybutan-2-yl)-6-methylbenzamide], the half-maximal inhibitory concentration (IC50) in assay [1] (setting [4]) stood at 4.9 nM; in assay [2] (setting [5]), 8800 nM; in assay [3] it was 5.1 nM.
For `Nc1nc2cc(-c3ccc(Cl)c(C(=O)NCC(F)(F)C(O)c4cc(F)cc(F)c4)c3F)ccn2n1` (stereo not drawn) [Example 188, 3-(2-amino-[1,2,4]triazolo[1,5-a]pyridin-7-yl)-6-chloro-N-(3-(3,5-difluorophenyl)-2,2-difluoro-3-hydroxypropyl)-2-fluorobenzamide], in that order: 0.3 nM, 9400 nM and 6.3 nM.
Turning to `Cc1cc(F)c(-c2ccn3nc(N)nc3c2)cc1C(=O)NCCC(O)c1ccc(Cl)cn1` (single isomer, unassigned) [Example 7, 5-(2-amino-[1,2,4]triazolo[1,5-a]pyridin-7-yl)-N-(3-(5-chloropyridin-2-yl)-3-hydroxypropyl)-4-fluoro-2-methylbenzamide], the IC50 in assay [1] (setting [4]) is 13 nM; in assay [2] (setting [5]), above 15000 nM; in assay [3] it was 10 nM.
In the case of `Nc1nc2cc(-c3ccc(Cl)c(C(=O)NCC(F)(F)C(O)c4ccc(Cl)c(F)c4)c3F)ccn2n1` (stereo not drawn) [Example 190, 3-(2-amino-[1,2,4]triazolo[1,5-a]pyridin-7-yl)-6-chloro-N-(3-(4-chloro-3-fluorophenyl)-2,2-difluoro-3-hydroxypropyl)-2-fluorobenzamide], the IC50 in assay [1] (setting [6]) is 0.7 nM; in assay [2] (setting [5]), above 15000 nM; in assay [3] it was 3.3 nM.
On to `Cc1ccc(-c2ccn3nc(N)nc3c2)c(F)c1C(=O)NCCC(O)c1c(F)cccc1F` (single isomer, unassigned) [Example 74, 3-(2-amino-[1,2,4]triazolo[1,5-a]pyridin-7-yl)-Nr-(3-(2,6-difluorophenyl)-3-hydroxypropyl)-2-fluoro-6-methylbenzamide], for which the figures for the IC50 in assay [1] (setting [6]), in assay [2] (setting [5]) and in assay [3] were 8.2 nM, above 15000 nM and 13 nM, respectively.
Take `[2H]C([2H])([2H])C(O)(c1ccc(F)cc1)C(F)CNC(=O)c1c(Cl)ccc(-c2ccn3nc(N)nc3c2)c1F` (single isomer, unassigned) [Example 238, 3-(2-amino-[1,2,4]triazolo[1,5-a]pyridin-7-yl)-6-chloro-2-fluoro-N-(2-fluoro-3-(4-fluorophenyl)-3-hydroxybutyl-4,4,4-d3)benzamide]: the figures for the IC50 in assay [1] (setting [4]), in assay [2] (setting [5]) and in assay [3] were 1.9 nM, above 15000 nM and 16 nM, respectively.
Turning to “(S)-3-(2-amino-[1,2,4]triazolo[1,5-a]pyridin-7-yl)-6-cyclopropyl-N-(2,2-difluoro-3-(4-fluorophenyl)-3-hydroxypropyl)-2-fluorobenzamide [Example 304]”, the IC50 in assay [1] (HT29-L23 cells, read-out: pMLKL IC50) was 2.8 nM; in assay [2] it was above 15000 nM; in assay [3] it was 4.8 nM.
For the compound `CC(O)(c1ccc(Cl)cc1)C(F)(F)CNC(=O)c1c(Cl)ccc(-c2ccn3nc(N)nc3c2)c1F` (single isomer, unassigned) [Example 223, 3-(2-amino-[1,2,4]triazolo[1,5-a]pyridin-7-yl)-6-chloro-N-(3-(4-chlorophenyl)-2,2-difluoro-3-hydroxybutyl)-2-fluorobenzamide], the IC50 in assay [1] (setting [4]) was 71 nM; in assay [2] (setting [5]) it was above 15000 nM; in assay [3], 5.8 nM.
`C#Cc1ccc([C@@H](O)CCNC(=O)c2c(C)ccc(-c3ccn4nc(N)nc4c3)c2F)cc1` [Example 142, 3-{2-amino-[1,2,4]triazolo[1,5-a]pyridin-7-yl}-N-[(3S)-3-(4-ethynylphenyl)-3-hydroxypropyl]-2-fluoro-6-methylbenzamide]: the figures for the IC50 in assay [1] (setting [6]), in assay [2] (setting [5]) and in assay [3] were 2.5 nM, above 15000 nM and 3.3 nM, respectively.
In the case of `Nc1nc2cc(-c3ccc(Cl)c(C(=O)NCCC4(c5ccc(F)cc5)CC4)c3F)ccn2n1` [Example 84, 3-(2-amino-[1,2,4]triazolo[1,5-a]pyridin-7-yl)-6-chloro-2-fluoro-N-(2-(1-(4-fluorophenyl)cyclopropyl)ethyl)benzamide], the IC50 is 1.1 nM in assay [1] (setting [6]), above 15000 nM in assay [2] (setting [5]) and 1.6 nM in assay [3].
